What is called melting point is the temperature of the solid-liquid transition.

Compound `CCCN(CCC)[C@@H]1Cc2c(Br)ccc3c2[C@@H](C1)CN3C(=O)c1ccccc1` gave a melting point of 93 °C.
The result for `CC(C)(SN=O)C1COC(=O)N1` (stereo not drawn) reads 65 °C.
For the compound `CC(Br)c1ccc(-c2onc3ccccc23)cc1` (stereo not drawn), the melting point was 106 to 108 °C.
The figure for `CN(c1nc(N)no1)c1c(Cl)cccc1Cl` is 177 to 178 °C; for `COc1ccc(-c2nc(CN(c3ccccc3)c3ccccc3)nc3cc(OC)c(OC)cc23)cc1OC` it is 215 to 216 °C; for `CCCCC(=O)c1c(C)nc2cc(OC)c(OC)cc2c1-c1ccc(OC)c(OC)c1` it is 119 to 120 °C.
The figure for `C=C(CCCC(=O)N1CCC[C@@H](C(=O)OC(C)(C)C)N1)C(=O)OCC` is 63 to 65 °C; for `CC1(C)CCC(=O)c2c1oc(-c1ccncc1)c2-c1ccccc1` it is 156 to 157 °C.
Compound `COc1cc2oc(=O)c(CCO)c(C)c2cc1OC(C)C` showed a melting point of 110 to 112 °C.
With `Cc1ccn2cc(CC(=O)N3CCN(c4ccc5[nH]c(=O)ccc5c4)CC3)nc2c1`, the melting point is greater than 250 °C.
The result for `COc1cc(OC)nc(Oc2ccc3ccccc3c2C(=O)O)n1` reads 187 to 189 °C; that for `CNC(C)Cc1ccc(CCCC(=O)O)cc1` (stereo not drawn), 170 to 172 °C.
The figure for `N#Cc1cnc2n(c1=O)CCCCC2` is 125 °C.
In the case of `COc1cccc([C@H]2O[C@H](CC(=O)Nc3cc(CCC(=O)O)ccc3C)C(=O)N(CC(C)(C)CO)c3ccc(Cl)cc32)c1OC`, the melting point lay within 154 to 155 °C.
`CCOC(=O)Nc1ccc(C2=NN(c3nnc(C)s3)[C@H](C)Cc3cc4c(cc32)OCO4)cc1C` came in with a melting point of 241 to 244 °C.
The result for `O=C(c1cccs1)c1cnn2c(-c3cccc(NCC4CCCCC4)c3)ccnc12` reads 101 to 104 °C; that for `CCOc1ccc(F)cc1C1OC(=O)NC1=O` (stereo not drawn), 188 to 190 °C; that for `CCOc1ncc(C(=O)O)c2ccccc12`, 222 °C.
The figure for `CCC1(CCCCCl)C(=O)Nc2cc(F)ccc21` (stereo not drawn) is 95 to 97 °C; for `O=C(NCC1CCCO1)c1c[nH]c2ccccc2c1=O` (stereo not drawn) it is 205 to 209 °C; for `COc1cc2c(cc1C#Cc1ccc(C)cc1)C(C)(C)CCC2(C)C` it is 127 °C.
The figure for `COc1ccc(-c2cc(Nc3c(C)cc(C)cc3C)nc(C)n2)cc1OC` is 168 to 170 °C; for `CCOCc1nc2c(N)nc(C)cc2n1CCCCN` it is 108 to 111 °C.
`CSCCC(=N)Nc1cn(-c2cccnc2)nc1Cl` returned a melting point of 137 °C.
The figure for `C=C1CC1(c1ccc(OC)cc1)c1ccc(OC)cc1` is 31 to 32 °C; for `CN(C)C=Nc1ncc(S(=O)(=O)NC(C)(C)C)c(O)n1` it is 258 to 261 °C; for `CN(Cc1sc2c(=O)c(C(=O)NCc3ccc(Cl)cc3)cn(C)c2c1COCC[Si](C)(C)C)CC(O)c1ccc(C#N)s1` (stereo not drawn) it is 152 to 154 °C.
The figure for `COCCOc1ccc(CCC2(O)CN3CCC2CC3)cc1` (stereo not drawn) is 116 to 117 °C; for `CCc1cc2c(s1)-n1c(CCNC(=O)c3cc4ccccc4[nH]3)nnc1CN=C2c1ccccc1Cl` it is 174 to 178 °C.
The figure for `Cc1nc(Cl)c(SC(F)F)n1-c1c(Cl)cc(C(F)(F)F)cc1Cl` is 118 °C; for `CCc1nc(/C=C/c2cn(-c3ccccc3)nc2OCc2ccc(OCc3nc(-c4ccc(CC(=O)O)cc4)oc3C)c(OC)c2)cs1` it is 123 to 124 °C.
For the compound `CC1CC(N)=C(C#N)C1C` (stereo not drawn), the melting point is 92 to 100 °C.
The result for `CCCCC(=O)c1ccc(-c2ccc(C(=O)Nc3ccc(OC)c(N4CCN(C)CC4)c3)cc2C)cc1` reads 65 to 67 °C; that for `CCc1nc2c(cnn2CC)c(NC2CCOCC2)c1CNC(=O)c1cccc(C(=O)NCc2ccc(C)c(Br)c2)c1`, 175 to 176 °C; that for `C=C(C)n1c(C)c(-c2ccc(F)cc2)c2cccnc21`, 84 to 87 °C.
On to `Cc1nnc(-c2ccc(CN3C(=O)C4(COc5cc6c(cc54)CCO6)c4ccccc43)cc2)[nH]1` (stereo not drawn), for which the melting point fell in the range of 169 to 180 °C.
The figure for `CCOc1cc(-c2cc(C(F)F)n3ncc(C(=O)Nc4cccc(S(C)(=O)=O)c4)c3n2)ccc1C(F)(F)F` is 211 °C; for `CN1CCN(Cc2ccc(N)cc2C(F)(F)F)CC1` it is 119 to 121 °C.
The figure for `CNC(=O)c1ccccc1-c1cc(-c2ccccc2)no1` is 119 to 121 °C; for `Cc1[nH]c2cccc3c2c1CC1C3=CC(C(=O)NN)CN1C` (stereo not drawn) it is 235 to 240 °C; for `Cc1nn(-c2ccc(Cl)cc2)cc1C(=O)N(CC(=O)O)c1ccc(OCC(C)(C)C)c(C#N)c1` it is 186 to 189 °C.
As to `O=C(c1ccccc1F)C1(O)CCNCC1`, the melting point is 133 to 135 °C.
The result for `CC(=O)Nc1ccc(S(=O)(=O)c2cccc3cnccc23)cc1` reads 240 to 244 °C; that for `COc1ccc(Cn2c3ccc(Cl)cc3c3c(C(=O)Nc4c(Cl)cncc4Cl)ccc(OC)c32)cc1`, 257 to 258 °C.
Take `C=CCOc1ccc2c(=O)c(C)c(-c3ccccc3)oc2c1C(=O)C=Cc1ccccc1`: the melting point lay in the range of 145 to 147 °C.
The result for `CCOC(=O)c1[nH]c(C)c(C)c1OCCCCCl` reads 58 to 60 °C.
For the compound `COC(=O)c1ccc(-c2nc(-c3ccc4c(c3)C(C)(C)CCC4(C)C)cs2)cc1`, the melting point lay within 138 to 140 °C.
In turn, `CCCCCCCc1ccc(C(=O)Cc2cccc(C#N)c2)cc1` returned a melting point of 68 °C.
The figure for `CCCc1nc(N2CCc3ccccc3CC2)c(C#N)c(=O)n1CC(F)(F)F` is 104 to 106 °C; for `COc1ccc(N(C(=O)CN2C(=O)C(C)(Cc3n[nH]c4ccccc34)C(=O)N(c3cccnc3)c3ccccc32)C(C)C)cc1` (stereo not drawn) it is 161 to 165 °C; for `CCCCNC(=O)Nc1sc2c(c1C#N)CCCC2` it is 170 to 171 °C.
The compound `CSc1ncc(-c2ccccc2)c(Cl)n1` showed a melting point of 99 °C.
`C=C1CC(COc2ccc3ccc(=O)oc3c2)(c2ccccc2)OC1=O` (stereo not drawn) registered a melting point of 105 to 106 °C.
In turn, `O=c1c2c(Cl)cc(Cl)cc2n(Cc2ccccc2)c(=O)n1Cc1ccc(Br)cc1` returned a melting point of 163 to 168 °C.
The result for `O=C(Cc1ccnc(Cl)n1)c1ccc(F)cc1` reads 112 to 113 °C.
The result for `CCCCCCC(=O)C[C@H](O)C(=O)O` reads 69 to 70 °C.
The figure for `O=c1oc2ccccc2c(O)c1C1CC(c2ccc(Oc3ccc(-c4ccccc4)cc3)cc2)Cc2ccccc21` (stereo not drawn) is 124 to 127 °C; for `CCCCCCCCCCCCCCc1ccc(C(=O)CCCCC)c(O)c1` it is 44 to 45 °C; for `CNC(=O)Cn1c(-c2ccc(Br)o2)nc2cccnc21` it is 187 to 191 °C.
In turn, `CNS(=O)(=O)c1ccc(-c2cnc3[nH]c(CCc4cc(OC)ccn4)nc3c2)cc1` showed a melting point of 225 to 227 °C.
The compound `CS(=O)(=O)CC(N)C1(c2ccc(Cl)cc2)CCC1` (stereo not drawn) had a melting point of 134 to 135 °C.
The result for `COC(=O)Nc1c(C/C=C(\C)CCC(=O)O)c(OC)c(C)c2c1C(=O)OC2` reads 155 to 158 °C.
In the case of `CCOC(=O)CC(c1cccnc1)N1C(=O)c2ccccc2C1=O` (stereo not drawn), the melting point was 72.3 to 72.8 °C.
The result for `CCc1cc2ccccn2c1C(=O)c1cc(Cl)c(O)c(Cl)c1` reads 206 °C; that for `COc1ccccc1-n1c(-c2sc(Nc3ccccc3)nc2-c2ccccc2)nc2ccccc2c1=O`, 224 to 225 °C.
Compound `Cn1cc(OS(C)(=O)=O)c(=O)c2ccc(C#N)cc21` registered a melting point of 268 °C.
The figure for `CCOc1c(O)nc(-c2ccc(Cl)c(OC)c2F)nc1C(=O)OC` is 173 to 175 °C; for `Nc1cccc(COc2cccc3cccnc23)c1` it is 146 to 147 °C; for `CN(c1cccc2cc(C3=NCC(CN4CCS(=O)(=O)CC4)S3)[nH]c12)S(=O)(=O)c1ccccn1` (stereo not drawn) it is 188 to 189 °C.
On to `Cc1nc(NCCSCc2nc[nH]c2C)[nH]c(=O)c1Cc1cccnc1`, for which the melting point was 128 to 131 °C.
`CCCCCCOc1ccc(CBr)c2c(OCCCCCC)ccc(CBr)c12` showed a melting point of 105 to 107 °C.
The result for `O=Cc1cc2cc(Cl)ccc2nc1Cl` reads 188 to 190 °C; that for `O=c1nc(-c2cccc(CCc3nnn[nH]3)n2)sc2ccccc12`, 157 °C.
The result for `Cc1cscc1-c1cccc2c1ccn2-c1ccnc(NC2CCC(C(=O)N3CCC(O)CC3)CC2)n1` (stereo not drawn) reads 168 to 188 °C; that for `CCN1C(=O)Cc2ccc(OC(=O)CCl)cc21`, 114 to 116 °C; that for `O=C1CSC2CN=C(c3ccccc3)c3cc(Cl)ccc3N12` (stereo not drawn), 228 to 230 °C.
The result for `CS(=O)(=O)c1ccc(-n2cncc2-c2ccc(Cl)nc2)cc1` reads 191 to 192 °C.
Compound `CCOC(=O)c1c(NCC(=O)c2ccc(C(F)(F)F)cc2)c2c(Cl)cc(Cl)cc2n1C(=O)OC(C)(C)C` gave a melting point of 159 to 160 °C.
The result for `COC(=O)c1cc(-c2ccc(OC)cc2)nn(Cc2ccc([N+](=O)[O-])cc2)c1=O` reads 215 to 217 °C; that for `COc1cccc(N2CCN(CCC(=O)O)CC2)c1`, 180 to 183 °C; that for `C[C@H](OC(=O)NCC(F)(F)C(F)(F)F)C(=O)N[C@@H]1C(=O)N(C)c2cc(F)ccc2O[C@@H]1C`, 148 to 150 °C.
On to `CCOC(=O)c1cc(C)sc1NN=c1c(C(=O)OCC)c[nH]c2ccccc12`, for which the melting point lay in the range of 173 to 174 °C.
The result for `Cc1ccc(-c2cc(C#N)c[nH]2)cc1` reads 169 to 171 °C.
The figure for `N#Cc1ccc(N=Nc2ccc(OCCO)c(C#N)c2)cc1` is 138 °C; for `Cn1cc(C=CC(=O)NO)c([N+](=O)[O-])n1` it is 172 to 174 °C.
For the compound `NCC(F)(F)C(F)(F)C(F)(F)C(F)(F)CN`, the melting point lay within 44 to 45 °C.
`Cc1cn(C2CCN(c3c(F)cc4c(=O)c(C(=O)O)cn5c4c3OCC5C)C2)nn1` (single isomer, unassigned; (-)) gave a melting point of 241 to 242 °C.
The result for `CCOC(=O)COc1ccc(OCc2ccccc2)cc1` reads 65 to 68 °C.
